Results taken from ChEMBL document CHEMBL4049402, “Synthesis and cytotoxic activity of novel tetrahydrobenzodifuran-imidazolium salt derivatives” (Bioorg Med Chem Lett, 2017).

Experiments:
Format in all cases: functional, cell-based
A549 = experiment: Cytotoxicity against human A549 cells after 48 hrs by MTT assay
HL-60 = experiment: Cytotoxicity against human HL60 cells after 48 hrs by MTT assay
SMMC-7721 = experiment: Cytotoxicity against human SMMC7721 cells after 48 hrs by MTT assay
MCF7 = experiment: Cytotoxicity against human MCF7 cells after 48 hrs by MTT assay
SW480 = experiment: Cytotoxicity against human SW480 cells after 48 hrs by MTT assay

Compound	IC50 (A549; Homo sapiens, A549, 48 h) [µM]	IC50 (HL-60; Homo sapiens, HL-60, 48 h) [µM]	IC50 (SMMC-7721; Homo sapiens, SMMC-7721, 48 h) [µM]	IC50 (MCF7; Homo sapiens, MCF7, 48 h) [µM]	IC50 (SW480; Homo sapiens, SW480, 48 h) [µM]	IC50 (HL-60; hl-60) [µM]	IC50 (A549; a549) [µM]	IC50 (SMMC-7721; smmc-7721) [µM]	IC50 (MCF7; mcf7) [µM]	IC50 (SW480; sw480) [µM]
COc1ccc(C(=O)C[n+]2cn(Cc3c4c(cc5c3OCC5)OCC4)c3cc(C)c(C)cc32)cc1	15.4	2.71	6.87	9.87	13.7					
O=C(C[n+]1ccn(Cc2c3c(cc4c2OCC4)OCC3)c1)c1ccc(Br)cc1	> 20	> 20	> 20	> 20	> 20					
O=C(C[n+]1cn(Cc2c3c(cc4c2OCC4)OCC3)c2ccccc21)c1ccc(Br)cc1	16.1	5.81	5.95	5.12	5.11					
c1cn(Cc2c3c(cc4c2OCC4)OCC3)cn1	> 20	> 20	> 20	> 20	> 20					
Brc1ccc(C[n+]2ccn(Cc3c4c(cc5c3OCC5)OCC4)c2)cc1	> 20	> 20	> 20	> 20	> 20					
COc1ccc(C(=O)C[n+]2c(C)n(Cc3c4c(cc5c3OCC5)OCC4)c3ccccc32)cc1	> 20	5.14	> 20	7.87	10.1					
Cc1ccc(C[n+]2cn(Cc3c4c(cc5c3OCC5)OCC4)c3cc(C)c(C)cc32)cc1 [listing 1 of 2 here]	5.82		4.43	7.39	6.15	1.58				
Cc1ccc(C[n+]2cn(Cc3c4c(cc5c3OCC5)OCC4)c3ccccc32)cc1	> 20	> 20	> 20	> 20	> 20					
Brc1ccc(C[n+]2cn(Cc3c4c(cc5c3OCC5)OCC4)c3ccccc32)cc1	> 20	4.12	17.8	5.4	10.1					
Cc1cc2c(cc1C)[n+](CC(=O)c1ccc3ccccc3c1)cn2Cc1c2c(cc3c1OCC3)OCC2	7.77	1.95	5.64	8.67	14					
Cc1cc2c(cc1C)[n+](Cc1ccccc1Br)cn2Cc1c2c(cc3c1OCC3)OCC2	8.64	3.18	5.96	7.29	7.87					
Cc1ccc(C[n+]2c(C)n(Cc3c4c(cc5c3OCC5)OCC4)c3ccccc32)cc1	> 20	> 20	> 20	> 20	> 20					
Cc1ccc(C[n+]2cn(Cc3c4c(cc5c3OCC5)OCC4)c3cc(C)c(C)cc32)cc1 [listing 2 of 2 here]						0.38	4.06	6.49	7.98	6.31
Cc1cc2c(cc1C)[n+](Cc1ccc3ccccc3c1)cn2Cc1c2c(cc3c1OCC3)OCC2 [listing 1 of 2 here]						0.29	3.62	2.98	8.34	6.84
Brc1ccccc1C[n+]1cn(Cc2c3c(cc4c2OCC4)OCC3)c2ccccc21	> 20	4.9	> 20	8.3	8.95					
Cc1cc2c(cc1C)[n+](Cc1ccc(Br)cc1)cn2Cc1c2c(cc3c1OCC3)OCC2 [listing 1 of 2 here]	6.9	0.49	4.72	6.85	10.1					
Cc1n(Cc2c3c(cc4c2OCC4)OCC3)c2ccccc2[n+]1CC(=O)c1ccc(Br)cc1	> 20	4.7	11.8	6.43	8.29					
c1ccc2c(c1)ncn2Cc1c2c(cc3c1OCC3)OCC2	> 20	> 20	> 20	> 20	> 20					
Cc1n(Cc2c3c(cc4c2OCC4)OCC3)c2ccccc2[n+]1Cc1ccc([N+](=O)[O-])cc1	> 20	> 20	> 20	> 20	> 20					
Cc1cc2c(cc1C)[n+](CC(=O)c1ccc(Br)cc1)cn2Cc1c2c(cc3c1OCC3)OCC2 [listing 1 of 2 here]	8	4.04		12.7	16.3			6.23		
c1ccc2cc(C[n+]3ccn(Cc4c5c(cc6c4OCC6)OCC5)c3)ccc2c1	> 20	> 20	> 20	> 20	> 20					

Compound	IC50 (A549; Homo sapiens, A549, 48 h) [µM]	IC50 (HL-60; Homo sapiens, HL-60, 48 h) [µM]	IC50 (SMMC-7721; Homo sapiens, SMMC-7721, 48 h) [µM]	IC50 (MCF7; Homo sapiens, MCF7, 48 h) [µM]	IC50 (SW480; Homo sapiens, SW480, 48 h) [µM]	IC50 (HL-60; hl-60) [µM]	IC50 (A549; a549) [µM]	IC50 (SMMC-7721; smmc-7721) [µM]	IC50 (MCF7; mcf7) [µM]	IC50 (SW480; sw480) [µM]
Cc1cc2c(cc1C)[n+](Cc1ccc(Br)cc1)cn2Cc1c2c(cc3c1OCC3)OCC2 [listing 2 of 2 here]						0.57	9.01	6.61	8.05	7.76
Cc1n(Cc2c3c(cc4c2OCC4)OCC3)c2ccccc2[n+]1Cc1ccc(Br)cc1	> 20	3.63	7.42	4.86	7.22					
c1ccc2cc(C[n+]3cn(Cc4c5c(cc6c4OCC6)OCC5)c4ccccc43)ccc2c1	10.7	2.3	5.66	2.62	4.11					
O=C(C[n+]1cn(Cc2c3c(cc4c2OCC4)OCC3)c2ccccc21)c1ccc2ccccc2c1	7.73	1.88	5.25	2.2	5.42					
Cc1cc2c(cc1C)[n+](CC(=O)c1ccc(Br)cc1)cn2Cc1c2c(cc3c1OCC3)OCC2 [listing 2 of 2 here]						2.38	15.3	13	18	15.2
O=[N+]([O-])c1ccc(C[n+]2cn(Cc3c4c(cc5c3OCC5)OCC4)c3ccccc32)cc1	> 20	> 20	> 20	> 20	> 20					
COc1ccc(C(=O)C[n+]2ccn(Cc3c4c(cc5c3OCC5)OCC4)c2)cc1	> 20	> 20	> 20	> 20	> 20					
Brc1ccccc1C[n+]1ccn(Cc2c3c(cc4c2OCC4)OCC3)c1	> 20	> 20	> 20	> 20	> 20					
Cc1n(Cc2c3c(cc4c2OCC4)OCC3)c2ccccc2[n+]1Cc1ccccc1Br	> 20	> 20	> 20	> 20	> 20					
Cc1nc2ccccc2n1Cc1c2c(cc3c1OCC3)OCC2	> 20	> 20	> 20	> 20	> 20					
Cc1cc2c(cc1C)[n+](CC(=O)c1ccccc1)cn2Cc1c2c(cc3c1OCC3)OCC2	> 20	5.68	17.4	7.8	11.9					
Cc1cc2c(cc1C)[n+](Cc1ccc3ccccc3c1)cn2Cc1c2c(cc3c1OCC3)OCC2 [listing 2 of 2 here]	4.34		2.99		3.48	1.06			3.94	
O=C(C[n+]1ccn(Cc2c3c(cc4c2OCC4)OCC3)c1)c1ccc2ccccc2c1	> 20	> 20	> 20	> 20	> 20					
Cc1cc2c(cc1C)[n+](Cc1ccc([N+](=O)[O-])cc1)cn2Cc1c2c(cc3c1OCC3)OCC2	> 20	> 20	> 20	> 20	> 20					
O=C(C[n+]1cn(Cc2c3c(cc4c2OCC4)OCC3)c2ccccc21)c1ccccc1	> 20	> 20	> 20	> 20	> 20					
Cc1n(Cc2c3c(cc4c2OCC4)OCC3)c2ccccc2[n+]1Cc1ccc2ccccc2c1	9.14	1.76	5.5	3.4	4.1					
Cc1n(Cc2c3c(cc4c2OCC4)OCC3)c2ccccc2[n+]1CC(=O)c1ccccc1	> 20	> 20	> 20	> 20	> 20					
Cc1ccc(C[n+]2ccn(Cc3c4c(cc5c3OCC5)OCC4)c2)cc1	> 20	> 20	> 20	> 20	> 20					
O=[N+]([O-])c1ccc(C[n+]2ccn(Cc3c4c(cc5c3OCC5)OCC4)c2)cc1	> 20	> 20	> 20	> 20	> 20					
Cc1cc2ncn(Cc3c4c(cc5c3OCC5)OCC4)c2cc1C	> 20	> 20	> 20	> 20	> 20					
COc1ccc(C(=O)C[n+]2cn(Cc3c4c(cc5c3OCC5)OCC4)c3ccccc32)cc1	> 20	5.99	> 20	6.6	14					
